Test systems include OVCAR-3 ovarian; MCF7 breast; CCRF-CEM leukemia; DU-145 prostate; U251 CNS; NCI-H522 lung; MALME-3M melanoma; HS 578T breast; SK-MEL-28 melanoma; NCI-H226 lung.
Common to all, as to assay: inhibition of tumour cell growth, NCI panel, 48 h

Molecules are shown by their SMILES.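 1) Cells in 96-well plates. 2) Compound, 48 h, 5 concentrations. 3) Linear interpolation between surrounding doses. 4) Unreached endpoint = highest concentration. Here, GI50 denotes the concentration required for 50% inhibition of growth. Definition used: TGI = concentration required for complete inhibition of growth.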

Consider `C=C(F)C(=O)N1CCN(c2nc(OC[C@@H]3CCCN3C)nc3c2CCN(c2cccc4cccc(Cl)c24)C3)C[C@@H]1CC#N`, for which the GI50 is 1.15 µM with OVCAR-3 ovarian; 1.05 µM in the assay with MCF7 breast; 1.05 µM in the assay on CCRF-CEM leukemia; 1.04 µM with DU-145 prostate; 1.02 µM in the assay with U251 CNS; 0.441 µM in the assay with NCI-H522 lung. For the same compound, the GI50 is 1.47 µM with MALME-3M melanoma, 1.76 µM in the assay with HS 578T breast and 1.32 µM with SK-MEL-28 melanoma. For the same compound, the TGI is 3.28 µM in the assay with OVCAR-3 ovarian; 2.96 µM in the assay with MCF7 breast; 4.32 µM in the assay with CCRF-CEM leukemia; 2.87 µM with DU-145 prostate; 2.21 µM with U251 CNS; 1.73 µM in the assay with NCI-H522 lung. The TGI with MALME-3M melanoma came to 2.98 µM; in the assay on HS 578T breast, 4.4 µM; in the assay with SK-MEL-28 melanoma, 2.72 µM.
Regarding `CC(=O)O.CC(=O)O.CC(=O)O.CC(=O)O.CC(=O)O.CC(=O)O.O.[Ti].[Ti]`, the GI50 in the assay with OVCAR-3 ovarian, with CCRF-CEM leukemia, in the assay with NCI-H226 lung, with U251 CNS, in the assay on NCI-H522 lung and in the assay on MALME-3M melanoma was above 100 µM throughout. In addition, the GI50 with SK-MEL-28 melanoma is above 100 µM. Moreover, the TGI in the assay with OVCAR-3 ovarian, with CCRF-CEM leukemia, in the assay on NCI-H226 lung, with U251 CNS, in the assay on NCI-H522 lung and in the assay with MALME-3M melanoma was above 100 µM throughout. The compound further came in with a TGI in the assay on SK-MEL-28 melanoma above 100 µM.
Consider `CC1OC(n2cc(F)c(=O)[nH]c2=O)C=CC1O` (stereo not given), for which the TGI in the assay with OVCAR-3 ovarian is above 100 µM; in the assay with CCRF-CEM leukemia, above 77.9 µM; with NCI-H226 lung, above 100 µM; in the assay with U251 CNS, above 100 µM; in the assay on NCI-H522 lung it was above 100 µM; with MALME-3M melanoma, above 100 µM. This compound registered a TGI in the assay with SK-MEL-28 melanoma above 100 µM.
Consider `C/C(=C\CCc1ccoc1)CC/C=C(\C)CCCC1=CC(=O)OC1`, for which the GI50 in the assay on OVCAR-3 ovarian was 9.69 µM; in the assay with MCF7 breast, 3.47 µM; in the assay on NCI-H226 lung, 11 µM; in the assay on DU-145 prostate it was 24.8 µM; in the assay on NCI-H522 lung it was 5.45 µM; with MALME-3M melanoma, 13.7 µM. Besides, the GI50 is 3.26 µM with HS 578T breast and 7.98 µM in the assay with SK-MEL-28 melanoma. Besides, the TGI is 25 µM with OVCAR-3 ovarian; 36.9 µM with MCF7 breast; 29.4 µM in the assay with NCI-H226 lung; above 100 µM in the assay with DU-145 prostate; 22.2 µM in the assay with NCI-H522 lung; 31.5 µM with MALME-3M melanoma. Also, the TGI with HS 578T breast is 36 µM; in the assay on SK-MEL-28 melanoma, 46.7 µM.
Regarding `Cc1ccc(S(=O)(=O)NCC2CCCCC2=O)cc1` (stereo not given), the TGI in the assay with OVCAR-3 ovarian, with CCRF-CEM leukemia, in the assay on NCI-H226 lung, with U251 CNS, in the assay on NCI-H522 lung and in the assay with MALME-3M melanoma was above 100 µM each time. In the assay with SK-MEL-28 melanoma, this compound yielded a TGI above 100 µM.
Take `CCN(CC)CCOc1ccc(/C=C(\C#N)c2ccc(OCCN(CC)CC)cc2)cc1`: the TGI in the assay with OVCAR-3 ovarian was above 63.1 µM; in the assay on CCRF-CEM leukemia, 44.2 µM; with NCI-H226 lung, above 78.4 µM; with DU-145 prostate, above 100 µM; in the assay with U251 CNS, 35.8 µM; with NCI-H522 lung, 24.9 µM. Also, the values for the TGI in the assay with MALME-3M melanoma and with SK-MEL-28 melanoma were 28 µM and 32 µM, respectively.
For the compound `Cc1cc(Br)cc(C)c1NC(=O)C(=O)C(C(=O)c1ccc2ccccc2c1)C1OC(=O)c2ccccc21` (stereo not given), the TGI in the assay with OVCAR-3 ovarian is above 64.8 µM; in the assay on CCRF-CEM leukemia, 45.1 µM; in the assay with NCI-H226 lung it was 11.2 µM; in the assay with U251 CNS it was 18.7 µM; with NCI-H522 lung it was 22.8 µM; with MALME-3M melanoma, 34.5 µM. The TGI in the assay with SK-MEL-28 melanoma was found to be 14.2 µM.
As to `C/C1=C\CC[C@@]2(C)O[C@@H]2[C@H]2OC(=O)[C@@H](CN(C)C)[C@@H]2CC1`, the GI50 in the assay with OVCAR-3 ovarian is 12.1 µM; in the assay with MCF7 breast it was 4.96 µM; in the assay with CCRF-CEM leukemia it was 2.11 µM; in the assay with NCI-H226 lung, 20.4 µM; in the assay with DU-145 prostate, 4.75 µM; in the assay with U251 CNS it was 14.9 µM. Also, the GI50 with NCI-H522 lung is 2.65 µM; in the assay with HS 578T breast it was 22.7 µM; with SK-MEL-28 melanoma, 21.9 µM. Besides, the TGI in the assay on OVCAR-3 ovarian is 32.4 µM; with MCF7 breast it was above 100 µM; in the assay on CCRF-CEM leukemia, 5.61 µM; in the assay on NCI-H226 lung, 40.6 µM; in the assay with DU-145 prostate, 28.1 µM; in the assay with U251 CNS, 34.4 µM. For the same compound, the values for the TGI in the assay on NCI-H522 lung, in the assay on HS 578T breast and with SK-MEL-28 melanoma were 7.06 µM, above 100 µM and 51.6 µM, respectively.
`COC(=O)c1cc2c(cc1O)[C@@H](NC(C)=O)CCc1cc(OC)c(OC)c(OC)c1-2`: the TGI in the assay with MCF7 breast is above 100 µM; with CCRF-CEM leukemia it was above 100 µM; in the assay with DU-145 prostate it was above 100 µM; with U251 CNS, 1.17 µM; in the assay on NCI-H522 lung, 0.19 µM; in the assay on HS 578T breast it was 0.0481 µM. This compound came in with a TGI in the assay with SK-MEL-28 melanoma above 100 µM. In addition, the GI50 is 0.0398 µM with CCRF-CEM leukemia; 0.0309 µM with NCI-H226 lung; 0.0402 µM with U251 CNS; 0.0299 µM in the assay on MALME-3M melanoma; above 100 µM in the assay on SK-MEL-28 melanoma.
`Clc1ccc2c(NCCCNc3nccc(Nc4ccc(Br)cc4)n3)ccnc2c1`: the GI50 in the assay with OVCAR-3 ovarian is 1.75 µM; in the assay on MCF7 breast, 1.39 µM; in the assay on NCI-H226 lung, 2.74 µM; with DU-145 prostate it was 1.86 µM; in the assay on U251 CNS it was 1.52 µM; in the assay with NCI-H522 lung, 1.93 µM. Also, the GI50 with SK-MEL-28 melanoma is 1.65 µM. The TGI with OVCAR-3 ovarian turned out to be 3.23 µM; in the assay with MCF7 breast, 2.94 µM; with NCI-H226 lung, 7.37 µM; in the assay with DU-145 prostate, 3.31 µM; in the assay with U251 CNS, 2.94 µM; with NCI-H522 lung, 3.52 µM. This compound also showed a TGI with SK-MEL-28 melanoma of 3.15 µM.
`C=CC1CC12C(=O)C1OC2(C)C2C(=O)c3cc4ccccc4cc3C(=O)C12` (stereo not given): the GI50 in the assay with MCF7 breast was 16.1 µM; in the assay with NCI-H226 lung it was 21.5 µM; with U251 CNS, 21.1 µM; in the assay on NCI-H522 lung it was 29.3 µM; in the assay with MALME-3M melanoma, 16.8 µM; in the assay on HS 578T breast, 27 µM. Also, the GI50 with SK-MEL-28 melanoma is 24.7 µM. Also, the TGI is above 100 µM in the assay with MCF7 breast; 79.8 µM in the assay with NCI-H226 lung; 56.7 µM in the assay on U251 CNS; above 100 µM in the assay on NCI-H522 lung; 57.4 µM with MALME-3M melanoma; 92 µM with HS 578T breast. Moreover, the TGI in the assay with SK-MEL-28 melanoma was above 100 µM.

(Values after PubChem BioAssay (NCI).)
